Measurements published in the supplement of paper PMC4932681.
Structures can show the parent of a compound that is named as a salt.

How the values were obtained:
BT-474 Tam1 [1] = test: drug sensitivity score (DSS) (DSS (dimensionless)); higher = more sensitive; extreme values may be limits of the assay; details: 4-OH-tamoxifen in medium 1 µM; 72 h
Method: (§1)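 FIMM FO2B library drugs were tested at 5 concentrations (10,000-fold range) for 72 h, with CellTiter-Glo viability normalised to DMSO and benzethonium chloride controls. The Drug Sensitivity Score (DSS) is computed from the fitted logistic dose-response curve (area-based; 0 = inactive). Resistant lines and the 'in 1µM tamoxifen' arms were tested in 1 µM 4-OH-tamoxifen.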

BT-474 Tam2 [2] = test: as above; details: 4-OH-tamoxifen in medium 1 µM; 72 h
Method: as §1

BT-474 [3] = test: as above; details: 72 h
Method: as §1

MCF-7 Tam1 [4] = test: as above; details: 4-OH-tamoxifen in medium 1 µM; 72 h
Method: as §1

MCF-7 [5] = test: as above; details: 72 h
Method: as §1

T-47D Tam1 [6] = test: as above; details: 4-OH-tamoxifen in medium 1 µM; 72 h
Method: as §1

T-47D Tam2 [7] = test: as above; details: 4-OH-tamoxifen in medium 1 µM; 72 h
Method: as §1

T-47D [8] = test: as above; details: 72 h
Method: as §1

ZR-75-1 Tam1 [9] = test: as above; details: 4-OH-tamoxifen in medium 1 µM; 72 h
Method: as §1

ZR-75-1 Tam2 [10] = test: as above; details: 4-OH-tamoxifen in medium 1 µM; 72 h
Method: as §1

ZR-75-1 [11] = test: as above; details: 72 h
Method: as §1

BT-474 Tam1 [12] = test: relative IC50 (midpoint of fitted logistic curve, plateau may be below 50% inhibition; CellTiter-Glo viability); higher = less potent; details: 4-OH-tamoxifen in medium 1 µM; 72 h
Method: (§2)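 FIMM FO2B library drugs were plated at 5 concentrations spanning a 10,000-fold range in 384-well plates. Cells were incubated for 72 h at 37 °C and viability was read by CellTiter-Glo, normalised to DMSO (0% inhibition) and 100 µM benzethonium chloride (100% inhibition). IC50 values come from logistic dose-response fits (Breeze pipeline). Tamoxifen-resistant lines and the 'in 1µM tamoxifen' parental arms were tested in medium with 1 µM 4-OH-tamoxifen.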

BT-474 Tam2 [13] = test: as above; details: 4-OH-tamoxifen in medium 1 µM; 72 h
Method: as §2

BT-474 [14] = test: as above; details: 72 h
Method: as §2

MCF-7 [15] = test: as above; details: 72 h
Method: as §2

T-47D Tam2 [16] = test: as above; details: 4-OH-tamoxifen in medium 1 µM; 72 h
Method: as §2

T-47D [17] = test: as above; details: 72 h
Method: as §2

ZR-75-1 [18] = test: as above; details: 72 h
Method: as §2

MCF-7 Tam1 [19] = test: as above; details: 4-OH-tamoxifen in medium 1 µM; 72 h
Method: as §2

T-47D Tam1 [20] = test: as above; details: 4-OH-tamoxifen in medium 1 µM; 72 h
Method: as §2

ZR-75-1 Tam1 [21] = test: as above; details: 4-OH-tamoxifen in medium 1 µM; 72 h
Method: as §2

ZR-75-1 Tam2 [22] = test: as above; details: 4-OH-tamoxifen in medium 1 µM; 72 h
Method: as §2

| relative IC50 (BT-474 Tam1 [12]) [µM] | relative IC50 (BT-474 Tam2 [13]) [µM] | relative IC50 (BT-474 [14]; 4-OH-tamoxifen in medium 0 µM) [µM] | relative IC50 (BT-474 [14]; 4-OH-tamoxifen in medium 1 µM) [µM] | relative IC50 (MCF-7 [15]; 4-OH-tamoxifen in medium 1 µM) [µM] | relative IC50 (T-47D Tam2 [16]) [µM] | relative IC50 (T-47D [17]; 4-OH-tamoxifen in medium 0 µM) [µM] | relative IC50 (MCF-7 Tam1 [19]) [µM] | relative IC50 (MCF-7 [15]; 4-OH-tamoxifen in medium 0 µM) [µM] | relative IC50 (T-47D Tam1 [20]) [µM] | relative IC50 (T-47D [17]; 4-OH-tamoxifen in medium 1 µM) [µM] | Compound | drug sensitivity score (BT-474 Tam1 [1]) | drug sensitivity score (BT-474 Tam2 [2]) | drug sensitivity score (BT-474 [3]; 4-OH-tamoxifen in medium 0 µM) | drug sensitivity score (BT-474 [3]; 4-OH-tamoxifen in medium 1 µM) | drug sensitivity score (MCF-7 Tam1 [4]) | drug sensitivity score (MCF-7 [5]; 4-OH-tamoxifen in medium 0 µM) | drug sensitivity score (MCF-7 [5]; 4-OH-tamoxifen in medium 1 µM) | drug sensitivity score (T-47D Tam1 [6]) | drug sensitivity score (T-47D Tam2 [7]) | drug sensitivity score (T-47D [8]; 4-OH-tamoxifen in medium 0 µM) | drug sensitivity score (T-47D [8]; 4-OH-tamoxifen in medium 1 µM) | drug sensitivity score (ZR-75-1 Tam1 [9]) | drug sensitivity score (ZR-75-1 Tam2 [10]) | drug sensitivity score (ZR-75-1 [11]; 4-OH-tamoxifen in medium 0 µM) | drug sensitivity score (ZR-75-1 [11]; 4-OH-tamoxifen in medium 1 µM) | relative IC50 (ZR-75-1 [18]; 4-OH-tamoxifen in medium 0 µM) [µM] | relative IC50 (ZR-75-1 [18]; 4-OH-tamoxifen in medium 1 µM) [µM] | relative IC50 (ZR-75-1 Tam1 [21]) [µM] | relative IC50 (ZR-75-1 Tam2 [22]) [µM] |
| --- | --- | --- | --- | --- | --- | --- | --- | --- | --- | --- | --- | --- | --- | --- | --- | --- | --- | --- | --- | --- | --- | --- | --- | --- | --- | --- | --- | --- | --- | --- |
| 2.39 | 3.61 | 3.47 | 3.2 | 3.48 | 3.29 | > 10 | – | – | – | – | CC/C(=C(\c1ccccc1)c1ccc(OCCN(C)C)cc1)c1ccccc1 [Tamoxifen citrate] | 6.73 | 4.61 | 1.53 | 5.05 | 0.973 | 0 | 3.99 | 0.576 | 2.54 | 0 | 0 | 0.0116 | 0.865 | 0 | 1.69 | > 10 | 3.54 | – | – |
| > 1 | > 1 | > 1 | > 1 | > 1 | – | > 1 | > 1 | > 1 | > 1 | – | CC(=O)Nc1ccc(C(=O)Nc2ccccc2N)cc1 [Tacedinaline (CI-994)] | 0 | 0 | 0 | 0 | 0 | 0 | 0 | 0 | 0.132 | 0 | 0.0059 | 0 | 0 | 0 | 0 | > 1 | > 1 | > 1 | > 1 |
| > 10 | > 10 | > 10 | > 10 | > 10 | – | > 10 | > 10 | > 10 | > 10 | > 10 | CC1(C)CNc2cc(NC(=O)c3cccnc3NCc3ccncc3)ccc21 [Motesanib  (AMG-706)] | 0 | 0 | 0 | 0 | 0 | 0 | 0 | 0 | 0.166 | 0 | 0 | 0 | 0 | 0 | 0 | > 10 | > 10 | > 10 | > 10 |

Second part, the compound before the results:

| Compound | relative IC50 (BT-474 Tam1 [12]) [µM] | relative IC50 (BT-474 Tam2 [13]) [µM] | relative IC50 (BT-474 [14]; 4-OH-tamoxifen in medium 0 µM) [µM] | relative IC50 (BT-474 [14]; 4-OH-tamoxifen in medium 1 µM) [µM] | relative IC50 (MCF-7 [15]; 4-OH-tamoxifen in medium 1 µM) [µM] | relative IC50 (T-47D Tam2 [16]) [µM] | relative IC50 (T-47D [17]; 4-OH-tamoxifen in medium 0 µM) [µM] | relative IC50 (MCF-7 Tam1 [19]) [µM] | relative IC50 (MCF-7 [15]; 4-OH-tamoxifen in medium 0 µM) [µM] | relative IC50 (T-47D Tam1 [20]) [µM] | relative IC50 (T-47D [17]; 4-OH-tamoxifen in medium 1 µM) [µM] | drug sensitivity score (BT-474 Tam1 [1]) | drug sensitivity score (BT-474 Tam2 [2]) | drug sensitivity score (BT-474 [3]; 4-OH-tamoxifen in medium 0 µM) | drug sensitivity score (BT-474 [3]; 4-OH-tamoxifen in medium 1 µM) | drug sensitivity score (MCF-7 Tam1 [4]) | drug sensitivity score (MCF-7 [5]; 4-OH-tamoxifen in medium 0 µM) | drug sensitivity score (MCF-7 [5]; 4-OH-tamoxifen in medium 1 µM) | drug sensitivity score (T-47D Tam1 [6]) | drug sensitivity score (T-47D Tam2 [7]) | drug sensitivity score (T-47D [8]; 4-OH-tamoxifen in medium 0 µM) | drug sensitivity score (T-47D [8]; 4-OH-tamoxifen in medium 1 µM) | drug sensitivity score (ZR-75-1 Tam1 [9]) | drug sensitivity score (ZR-75-1 Tam2 [10]) | drug sensitivity score (ZR-75-1 [11]; 4-OH-tamoxifen in medium 0 µM) | drug sensitivity score (ZR-75-1 [11]; 4-OH-tamoxifen in medium 1 µM) | relative IC50 (ZR-75-1 [18]; 4-OH-tamoxifen in medium 0 µM) [µM] | relative IC50 (ZR-75-1 [18]; 4-OH-tamoxifen in medium 1 µM) [µM] | relative IC50 (ZR-75-1 Tam1 [21]) [µM] | relative IC50 (ZR-75-1 Tam2 [22]) [µM] |
| --- | --- | --- | --- | --- | --- | --- | --- | --- | --- | --- | --- | --- | --- | --- | --- | --- | --- | --- | --- | --- | --- | --- | --- | --- | --- | --- | --- | --- | --- | --- |
| CC(C)C(=O)Nc1ccc([N+](=O)[O-])c(C(F)(F)F)c1 [Flutamide] | > 10 | > 10 | > 10 | > 10 | – | – | > 10 | > 10 | > 10 | > 10 | > 10 | 0 | 0 | 0 | 0 | 0 | 0 | 0.814 | 0 | 0.0387 | 0 | 0 | 0 | 0 | 0 | 0 | > 10 | > 10 | > 10 | > 10 |
| O=S(=O)(c1cccc2cnccc12)N1CCCNCC1 [Fasudil  (HA-1077)] | > 50 | > 50 | > 50 | > 50 | > 50 | – | > 50 | > 50 | – | > 50 | > 50 | 6.87 | 6.54 | 1.03 | 5.24 | 0 | 0.328 | 0 | 1.67 | 1.06 | 0 | 0.739 | 0 | 0 | 0 | 0 | > 50 | > 50 | > 50 | > 50 |
| CCC/C=C/C=C/C(=O)O[C@H]1/C(=C/C(=O)OC)C[C@H]2C[C@H]([C@@H](C)O)OC(=O)C[C@H](O)C[C@@H]3C[C@H](OC(C)=O)C(C)(C)[C@](O)(C[C@@H]4C/C(=C/C(=O)OC)C[C@H](/C=C/C(C)(C)[C@]1(O)O2)O4)O3 [Bryostatin 1] | > 0.1 | > 0.1 | > 0.1 | > 0.1 | – | > 0.1 | > 0.1 | – | – | – | > 0.1 | 0 | 0 | 0 | 0 | 1.73 | 1.22 | 0.563 | 0.0014 | 0 | 0 | 0 | 1.05 | 0 | 0.213 | 0 | – | > 0.1 | – | > 0.1 |
| CN(Cc1cnc2nc(N)nc(N)c2n1)c1ccc(C(=O)N[C@@H](CCC(=O)O)C(=O)O)cc1 [Methotrexate] | > 10 | > 10 | > 10 | > 10 | – | > 10 | > 10 | – | – | > 10 | > 10 | 0 | 0 | 0 | 0 | 0 | 0.338 | 3.04 | 0 | 0 | 0 | 0 | 1.07 | 0.0419 | 6.76 | 0 | 0.197 | > 10 | – | – |
